# Data published in patent publication US9789114B2, “Compounds as HIF-1α inhibitors and manufacturing process thereof” (DONGGUK UNIVERSITY INDUSTRY-ACADEMIC COOPERATION FOUNDATION, priority 2011, dated 2017).
# Where two headings read alike, the source gives them in different places.
# Legend:
# [1] = system: HIF-1α-mediated HRE transcriptional activity; assay: Assay for inhibition of HIF-1α-mediated transcriptional activity (HRE reporter assay); format: cell-based, human; settings: Homo sapiens, HCT-116, HCT116 cells, 12 hours under hypoxia (1% O2), read-out: Inhibitory activity against HIF-1α (10 μM)
# Protocol: <Experiment 1> Assay for Inhibition of HIF-1α-Mediated Transcriptional Activity (HRE Reporter Assay)
# The compounds can be developed as anti-cancer drugs, because the compounds inhibiting HIF-1α-mediated HRE transcriptional activity induced by hypoxia can suppress the growth and metastasis of cancer.
# Inhibitory effects of the compounds according to the present invention, from Formula I-1 to I-42, on HIF-1α-mediated transcriptional activity were evaluated using this assay. pGL3-HRE-luciferase vector was constructed as follows. Six copies of HRE (Hypoxia Responsive Element, 5′-ACGTG-3′) from human VEGF genes were inserted into the multi-cloning site of a pGL3-basic vector (Promega). A luciferase gene was used as a reporter gene.
# In detail, HCT116(ATCC #CCL-247) human colon cancer cells were seeded in 48-well cell culture plates. The cells were co-transfected with 25 ng of pGL3-HRE-luciferase and 2.5 ng of Renila control vectors using Polyfect reagent next day. After 24 hours of incubation, the cells were incubated for an additional 4 hours with replaced cell culture media. The cells were treated with various concentrations (0, 1, 3, 5, 10, and 20 μM) of the above compounds according to the present invention and incubated for 12 hours under hypoxia (1% O2, 94% N2, and 5% CO2). The luciferase assay was performed using a dual-luciferase reporter assay system (Promega). After cell lysate preparation with RIPA buffer, induced luciferase activity under hypoxic conditions was determined to examine inhibitory effects of the compounds according to the present invention, from Formula I-1 to I-42, on HIF-1α-mediated transcriptional activity.
# [2] = biological target: T1, HIF-1α (Homo sapiens, UniProt Q16665); assay: Inhibition of hypoxia-induced HIF-1α accumulation, western blot in HCT116 cells; format: cell-based; settings: HCT116, hypoxia 1% O2, 0-30 μM, 12 hours, FIG. 1
# T1 construct: endogenous in cells; host or cells: HCT116 human colon cancer cells (ATCC #CCL-247)
# Protocol: <Experiment 2> In Vitro Studies for Inhibition of Hypoxia-Induced HIF-1α Accumulation
# Inhibition of HIF-1α accumulation by the compounds according to the present invention was determined in HCT116 human colon cancer cells. In particular, western blot analysis was used to identify the compounds, I-3, I-6, I-8, I-16, I-19, I-22˜I-24, and I-27˜I-36, which inhibited HIF-1α accumulation under hypoxia.
# (§1) First, HCT116 human colon cancer cells (ATCC #CCL-247) were plated at the concentration of 2×10^5 cells/ml. After 24 hours, the cells were incubated under hypoxia (1% O2, 94% N2, and 5% CO2, expressed as 1% O2 in FIG. 1) for 4 hours in order to induce HIF-la accumulation. Cells were treated with the compounds at various concentrations (0, 3, 10, 20, and 30 μM) for 12 hours under hypoxia. The cells were then harvested, and lysed in RIPA buffer to obtain nuclear extracts. Cells grown at 20% O2 (normoxia) were used as control groups to compare HIF-1α-mediated gene expression under each condition. 30 μg of the nuclear extracts per sample was separated by SDS-PAGE (sodium dodecyl sulfate-polyacrylamide gel electrophoresis), and was then transferred to PVDF (polyvinylidene fluoride membrane) membranes. After membranes were probed with HIF-1α antibodies (R&D System), HIF-1α proteins were detected with HRP-conjugated secondary antibodies (Amersham-Pharmacia). GAPDH (Glyceraldehyde 3-phosphate dehydrogenase) was used as an internal control for loading in western blot analysis.
# [3] = system: GAPDH; assay: GAPDH expression level (internal control) in western blot, HCT116 cells; format: cell-based, human; settings: HCT116, hypoxia 1% O2, 0-30 μM, 12 hours, FIG. 1
# Protocol: as §1
# [4] = system: HCT116 colon cancer cells; assay: In vivo anti-cancer activity by oral administration, HCT116 tumor in nude mice; design: species or system BALB/c nu/nu mice; settings: for inhibition in vivo at 20 mg/kg: Mus musculus
# Protocol: <Example 4> In Vivo Anti-Cancer Activity of Compounds by Oral Administration
# (§2) In vivo anti-cancer activity of the compounds according to the present invention, I-3, I-6, I-8, I-16, I-19, I-22, I-23, and I-24, was measured in mice to evaluate in vivo efficacy by oral administration. Specifically, the nude mice were divided into test groups and control groups, each consisting of 4 mice. In vivo efficacy was evaluated by measuring body weight, tumor volume, and tumor weight.
# (§3) Female nude mice 6 weeks old (BALB/c nu/nu, Charles River) were bred in germ-free breeding rooms maintained at constant temperature and humidity. After the nude mice were anesthetized, HCT116 colon cancer cells were implanted at a count of […] cells/mouse into the rectum in BALB/c nu/nu mice and then the incisions were closed with surgical clips. The size of tumor was measured by a caliper. When the size of transplanted tumor reached to 50˜60 mm^3, the above compounds according to the present invention were administered. In more detail, after the above compounds in test groups were dissolved at concentration of 20 mg/kg in a solvent containing 80% of physiological saline, 10% of DMAC (dimethylacetamide), and 10% Tween 80 (hereinafter referred to as ‘Solvent A’), […] of dissolved compounds were orally administered once a day. Mice in control groups were treated with […] of Solvent A alone once daily.
# (§4) Tumor volume and body weight were measured to identify in vivo anti-cancer activity of the compounds according to the present invention by repetitive oral administration. Tumor volume and tumor growth inhibition (TGI) in Table 2 were calculated according to the below Mathematic FIG. 1 and FIG. 2, respectively. Tumor growth inhibition was converted to a percentage in Table 2.
# [5] = Body weight change and side effects during 14 days of oral treatment in nude mice; format: in vivo, BALB/c nu/nu mice
# Protocol: as §2, §3, §4
# Moreover, severe side effects and statistically significant changes of body weight in all mice treated compounds were not shown for 14 days, comparing to control groups treated with vehicle. (Table 3)
# [6] = system: Chick embryo chorioallantoic membrane; assay: CAM (chick embryo chorioallantoic membrane) assay; format: in vivo; settings: 10-20 μg on coverslip, 2 days, FIG. 2
# Protocol: CAM (Chick embryo chorioallantoic membrane) assay was conducted as an in vivo model to determine whether the compounds according to the present invention, I-3, I-6, I-19, and I-22, had anti-angiogenic effects or not. DMSO-treated groups were used as negative controls.
# According to the present invention, CAM assay was performed as follows.
# Fertilized eggs were incubated periodically rolling at 37° C. with 50% humidity for 2-3 days. When eggs were erected, approximately 3 ml of albumin was extracted from the sharp edge of the eggs using a syringe. The hole of the eggs was sealed with a tape to prevent from dryness and contamination, and the hole of the eggs was put down and incubated for 2 to 3 days. After punching a hole with 1.5 cm diameter in the round part of eggs, opaque membrane was removed carefully. The compounds (10-20 μg) according to the present invention were placed and spread on thermanox coverslip equally to dry, and then the hole in the round part of eggs put on the upper part of the fertilized eggs that vessels grew. The eggs were examined under the dissecting microscope and the results were given in FIG. 2, after covering the hole with a coverglass to protect it from contamination for 2 days.
# [7] = HCT-116, 72 h, day 3, 20 mg/kg oral once a day, read-out: TGI (tumor growth inhibition), tumor volume
# [8] = HCT-116, 120 h, day 5, 20 mg/kg oral once a day, read-out: TGI (tumor growth inhibition), tumor volume
# [9] = HCT-116, 168 h, day 7, 20 mg/kg oral once a day, read-out: TGI (tumor growth inhibition), tumor volume
# [10] = HCT-116, 240 h, day 10, 20 mg/kg oral once a day, read-out: TGI (tumor growth inhibition), tumor volume
# [11] = HCT-116, 288 h, day 12, 20 mg/kg oral once a day, read-out: TGI (tumor growth inhibition), tumor volume
# [12] = HCT-116, 336 h, day 14, 20 mg/kg oral once a day, read-out: TGI (tumor growth inhibition), tumor volume
# [13] = HCT-116, 336 h, day 14, 20 mg/kg oral once a day, read-out: TGI (tumor growth inhibition), tumor weight
# [14] = day 3, 20 mg/kg oral once a day
# [15] = day 5, 20 mg/kg oral once a day
# [16] = day 7, 20 mg/kg oral once a day
# [17] = day 10, 20 mg/kg oral once a day
# [18] = day 12, 20 mg/kg oral once a day
# [19] = day 14, 20 mg/kg oral once a day
# [20] = day 0, 20 mg/kg oral once a day
# T1 sequence (Q16665 whole entry): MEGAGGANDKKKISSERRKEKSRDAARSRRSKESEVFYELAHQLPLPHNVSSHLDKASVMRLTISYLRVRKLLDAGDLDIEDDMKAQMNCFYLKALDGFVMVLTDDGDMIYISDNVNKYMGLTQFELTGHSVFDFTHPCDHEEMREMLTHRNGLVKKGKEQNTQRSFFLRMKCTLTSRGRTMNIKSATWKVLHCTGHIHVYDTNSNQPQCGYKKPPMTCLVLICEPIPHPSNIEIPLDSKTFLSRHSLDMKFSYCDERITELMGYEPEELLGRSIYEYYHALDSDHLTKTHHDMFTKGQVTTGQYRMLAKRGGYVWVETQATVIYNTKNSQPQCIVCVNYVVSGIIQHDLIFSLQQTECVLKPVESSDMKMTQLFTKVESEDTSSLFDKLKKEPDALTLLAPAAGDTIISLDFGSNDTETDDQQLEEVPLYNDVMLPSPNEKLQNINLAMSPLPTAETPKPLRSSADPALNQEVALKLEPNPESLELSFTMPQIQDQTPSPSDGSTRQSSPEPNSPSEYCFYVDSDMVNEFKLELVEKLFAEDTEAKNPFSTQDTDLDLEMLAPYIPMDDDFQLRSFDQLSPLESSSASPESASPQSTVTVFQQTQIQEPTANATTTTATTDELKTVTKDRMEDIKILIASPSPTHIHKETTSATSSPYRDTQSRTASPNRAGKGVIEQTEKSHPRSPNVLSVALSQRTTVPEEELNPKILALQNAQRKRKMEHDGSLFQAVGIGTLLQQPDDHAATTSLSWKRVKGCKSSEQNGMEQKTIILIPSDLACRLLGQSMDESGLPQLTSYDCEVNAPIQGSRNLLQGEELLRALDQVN
Structure (SMILES),inhibition at 10 µM [1],inhibitory effects on HIF-1α accumulation [2],"inhibition in vivo at 20 mg/kg [4, 7]","inhibition in vivo at 20 mg/kg [4, 8]","inhibition in vivo at 20 mg/kg [4, 9]","inhibition in vivo at 20 mg/kg [4, 10]","inhibition in vivo at 20 mg/kg [4, 11]","inhibition in vivo at 20 mg/kg [4, 12]","inhibition in vivo at 20 mg/kg [4, 13]","Tumor volume [4, 14]","Tumor volume [4, 15]","Tumor volume [4, 16]","Tumor volume [4, 17]","Tumor volume [4, 18]","Tumor volume [4, 19]","Tumor weight [4, 19]","Body weight change [5, 20]","Body weight change [5, 14]","Body weight change [5, 15]","Body weight change [5, 16]",other results
"Cc1cc(C23CC4CC(CC(C4)C2)C3)ccc1OCC(=O)N1CC[N+](C)(C)CC1.[I-] [Compound I-16, 4-(2-(4-(Adamantan-1-yl)-2-methylphenoxy)acetyl)-1,1-dimethylpiperazin-1-ium iodide]",51 to 75%,significant inhibitory effects on HIF-1α accumulation,28.6%,27.8%,27.9%,28.8%,28.6%,29.2%,30.2%,24.2 ± 6.1 mm^3,66.7 ± 14.2 mm^3,125.8 ± 13.6 mm^3,185.7 ± 20.2 mm^3,320.4 ± 33.9 mm^3,471.8 ± 26.0 mm^3,1655.7 ± 288.4 mg,100.0 ± 0.0%,104.1 ± 1.6%,104.2 ± 2.8%,104.3 ± 1.9%,"HIF-1α degradation [2]: promoted HIF-1α degradation; GAPDH expression levels [3]: did not affect GAPDH expression levels; Body weight change [5, 17]: 105.8 ± 4.2%; Body weight change [5, 18]: 103.2 ± 3.6%; Body weight change [5, 19]: 102.3 ± 3.7%"
"C[N+]1(C)CCN(C(=O)CCCOc2ccc(C34CC5CC(CC(C5)C3)C4)cc2)CC1.[I-] [Compound I-22, 4-(4-(4-(Adamantan-1-yl)phenoxy)butanoyl)-1,1-dimethylpiperazin-1-ium iodide]",51 to 75%,significant inhibitory effects on HIF-1α accumulation,39.8%,40.8%,43.4%,45.1%,45.1%,47.8%,49.5%,20.4 ± 1.1 mm^3,54.7 ± 2.8 mm^3,98.9 ± 4.8 mm^3,143.1 ± 6.2 mm^3,246.4 ± 10.8 mm^3,347.6 ± 11.8 mm^3,1197.3 ± 156.3 mg,100.0 ± 0.0%,104.1 ± 3.5%,104.1 ± 4.6%,104.1 ± 3.3%,"formation of vessels (anti-angiogenic effect) [6]: inhibited formation of vessels; inhibitory effects on tumor growth (TGI results) ([4]; 20 mg/kg oral once a day, 14 days): significant inhibitory effects on tumor growth; Body weight change [5, 17]: 105.6 ± 5.1%; Body weight change [5, 18]: 103.8 ± 3.6%; Body weight change [5, 19]: 102.7 ± 4.1%"
